# From paper PMC3928151 (ACS chemical biology, 2013)
# Biological target: CaCrg1 (Candida albicans, UniProt A0A1D8PSY8)
# Assay: […] methyl transfer, acid-labile volatility
# Format: biochemical
# Details: 0.2 mM cantharidin, 20 µM S-adenosyl-[methyl-14C]-L-methionine, 0.1 M sodium phosphate pH 7.4, 30 °C, 120 min
compound,measurement,value
C[C@@]12C(=O)OC(=O)[C@]1(C)[C@H]1CC[C@@H]2O1 [cantharidin],"14C methyl transfer, acid-labile volatility (14C-methanol)",demonstrating that CaCrg1 is a functional MTase methylating cantharidin in vitro
